Source: article PMC6253765, “Synthesis and Herbicidal Activities of Novel 4-(4-(5-methyl-3-arylisoxazol-4-yl)thiazol-2-yl)piperidyl Carboxamides and Thiocarboxamides” (Molecules, 2009)
pKi: −log10 of the molar value.

Target: T1, D1 protease (CtpA) (Spinacia oleracea, UniProt Q36792)
T1 construct: native spinach CtpA protein purified from spinach thylakoid
T1 sequence (Q36792 147-539): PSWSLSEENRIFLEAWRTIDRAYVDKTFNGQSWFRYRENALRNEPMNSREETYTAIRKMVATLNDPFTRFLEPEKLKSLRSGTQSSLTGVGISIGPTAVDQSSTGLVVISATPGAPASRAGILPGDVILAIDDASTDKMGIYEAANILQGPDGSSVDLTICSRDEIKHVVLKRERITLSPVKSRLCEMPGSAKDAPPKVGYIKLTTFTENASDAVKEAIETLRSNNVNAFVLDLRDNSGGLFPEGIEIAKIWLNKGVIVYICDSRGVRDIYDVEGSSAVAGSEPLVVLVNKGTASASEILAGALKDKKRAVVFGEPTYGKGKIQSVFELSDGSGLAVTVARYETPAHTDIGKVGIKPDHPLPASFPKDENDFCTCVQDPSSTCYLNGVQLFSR
Assay: HPLC assay of cleavage of S24 peptide substrate; Dixon plot
Assay type: biochemical

pKi: 5.89
Structure (SMILES): CCCCNC(=O)N1CCC(c2nc(-c3c(-c4ccccc4F)noc3C)cs2)CC1 [4m, N-butyl-4-(4-(3-(2-fluorophenyl)-5-methylisoxazol-4-yl)thiazol-2-yl)piperidine-1-carboxamide]
